Measured values: patent US20220401465A1, “USES OF NAD+ AND/OR NAD+ INHIBITORS AND/OR NAD+ AGONISTS AND COMBINATION PREPARATION THEREOF” (ShanghaiTech University, priority 2019, published 2022)

Legend:
T cells in PBMC [1] = test: Intracellular tyrosine phosphorylation after anti-CD3/CD28 activation of PBMC (WB, 4G10 antibody); type: cell-based, human; conditions: 1 μM FK866 24 h, then CD3/CD28 antibody stimulation 5 min, versus solvent
Description: (§1) Human peripheral blood mononuclear cells (PBMC) were diluted 1:1 with fresh blood and normal saline (Meilun Biological MA0083) and then added flat to the upper layer of an equal volume of Histopaque®-1077 (Sigma10771) separation solution. The cells were centrifuged slowly for 30 min at 500 g at room temperature. After centrifugation, the white membrane layer between the plasma and the separation solution was imbibed and washed with normal saline. After repeated washing, the cells were resuspended with 10% FBS (Thermofisher 10099141C) RPMI (Corning10-040-CV) medium for later use.
(§2) The concentration of PBMC cells was adjusted to no more than 0.5 million/ml, and the final concentration of 1 μM FK866 (Selleck S2799), 100 μM NAD+ (Selleck S2518), or 1μM FK866, and 100 μM NAD+ were added respectively. The cells after drug addition were cultured in a cell incubator for 24 hours at 37° C., with 5% CO2.
Highly adsorbed 96-well plates were coated with CD28 (Biolegend 102112), and CD3 (Thermofisher 14-0037-82) antibodies at the final concentration of 0 or 3 μg/ml, the PBMC cells treated with the above different treatments were added to the well plates, respectively. […] WB testing: after cell collection, the cells were lysed to extract proteins, which were then electrophoretically transferred and detected with 4G10 antibody (Millipore16-103) for anti-Phosphotyrosine testing. […]

T cells in PBMC [2] = test: CD69 expression on T cells after anti-CD3/CD28 activation of PBMC (flow cytometry); type: cell-based, human
Description: as §1, §2
Highly adsorbed 96-well plates were coated with CD28 (Biolegend 102112), and CD3 (Thermofisher 14-0037-82) antibodies at the final concentration of 0 or 3 μg/ml, the PBMC cells treated with the above different treatments were added to the well plates, respectively. After 24 h stimulation, the cells were collected for CD69 staining. […] After washing with Staining buffer, the cells were resuspended with staining buffer containing DAPI and then detected on BD LSRFortessa. […]

[3] = test system: K562-CD19-mCherry-luciferase cells; test: Subcutaneous K562-CD19-mCherry-luciferase solid tumor model in NSG mice, in vivo imaging and survival; conditions: NAM alone i.p. daily 100 μL at 1 g/ml in saline, versus saline, n=5
Description: In cells with K562-CD19-mCherry, as described previously, luciferase was then overexpressed through the lentiviral system. […] Since subcutaneously injected K562 cells also overexpressed Luciferase, intracellular fluorescence can be excited after intraperitoneal injection of the substrate luciferin (PerkinElmer 122799) in mice, and tumor growth in mice can be collected by in vivo imaging. Before CAR-T cells were injected into the tail vein of mice, the fluorescence signal intensity of mouse tumor cells was detected as the starting point, and then the fluorescence intensity of mouse tumor cells was detected every 7 days. For detection, the mice were intraperitoneally injected with 150 μL of D-luciferin potassium salt at a concentration of 10 mg/ml, and 10 minutes later, the fluorescence of tumor cells was detected using IVIS® LuminaIII small animal in vivo imaging system. The stronger the fluorescence, the more tumor cells and the faster the tumor growth.

| Structure (SMILES) | intracellular phosphorylation levels (tyrosine) (T cells in PBMC [1]) | CD69 on the surface of T cells (T cells in PBMC [2]; PBMC, 1 μM FK866 24 h, then CD3/CD28 antibody stimulation 24 h, versus solvent) | T cell activation ability (T cells in PBMC [2]; concluded from CD69 and phosphorylation levels when NAD+ synthesis was inhibited) | effect on the fluorescence intensity and tumor growth of tumor cells [3] |
| --- | --- | --- | --- | --- |
| O=C(/C=C/c1cccnc1)NCCCCC1CCN(C(=O)c2ccccc2)CC1 [FK866] | significantly reduced | significantly reduced | significantly decreased | – |
| NC(=O)c1cccnc1 [Nicotinamide (NAM), Nicotinamide] | – | – | – | no significant effect |
